Data taken from article PMC11847258, “Phase I trial of the combination of the pan-ErbB inhibitor neratinib and mTOR inhibitor everolimus in advanced cancer patients with ErbB family gene alterations” (ESMO Open, 2025).
Where two headings read alike, the source gives them in different places.

What was measured:
[1] = Plasma pharmacokinetics on cycle 1, day 15 (LC/MS, noncompartmental analysis); format: in vivo, human; conditions: for AUC(0-t): read-out: AUC0-24; for clearance: read-out: CLss (converted); for concentration at 24 h: read-out: Ctau or C24
Experimental: Pharmacokinetic (PK) analysis was conducted on cycle 1, day 15 for both everolimus and neratinib with blood samples collected at pre-dose, 1, 3, 4, 6, 8, and 24 hours post-dose. Following good clinical and laboratory practices, blood was collected into K2-EDTA vacutainers, gently inverted and mixed, then centrifuged at 3000 rpm (1500 g) for 10 min at 4°C. The resultant plasma was placed into cryovials and frozen at −70°C until analysis.

[2] = cited from earlier work
[3] = cited from earlier work; remark: listed apart in the source
[4] = Dose Level 2: neratinib 200mg/day + everolimus 5mg/day, n=3, Cycle 1, Day 15, mean (range)
[5] = Dose Level 4: neratinib 240mg/day + everolimus 7.5mg/day, n=5, Cycle 1, Day 15, mean (range)
[6] = human, plasma, oral, Dose Level 2: neratinib 200mg/day + everolimus 5mg/day, n=3, Cycle 1, Day 15, mean (range)
[7] = human, plasma, oral, Dose Level 2: neratinib 200mg/day + everolimus 5mg/day, n=3, Cycle 1, Day 15, mean (range), read-out: Tmax
[8] = human, plasma, oral, Dose Level 4: neratinib 240mg/day + everolimus 7.5mg/day, n=5, Cycle 1, Day 15, mean (range)
[9] = monotherapy 5mg, N=4, ref O’Donnell et.al.
[10] = monotherapy 10mg, N=33, ref O’Donnell et.al.
[11] = monotherapy 10mg, N=33, ref O’Donnell et.al., listed as everolimus
[12] = monotherapy 240mg, N=3, ref Wong et.al.
[13] = monotherapy 240mg, N=3, ref Wong et.al., listed as neratinib

Compound: CO[C@H]1C[C@@H]2CC[C@@H](C)[C@@](O)(O2)C(=O)C(=O)N2CCCC[C@H]2C(=O)O[C@H]([C@H](C)C[C@@H]2CC[C@@H](OCCO)[C@H](OC)C2)CC(=O)[C@H](C)/C=C(\C)[C@@H](O)[C@@H](OC)C(=O)[C@H](C)C[C@H](C)/C=C/C=C/C=C/1C [Everolimus, everolimus]
- AR (accumulation ratio) [1, 4]: 1.2 (1.1-1.3)
- Ctau or C24 [1, 4]: 0.42 (0-1.1) ng/mL
- AR (accumulation ratio) [1, 5]: 1.7 (1-2.6)
- Ctau or C24 [1, 5]: 2.8 (0-9.9) ng/mL
- Tmax [1, 5]: 4.8 h
- AUC(0-inf) [1, 6]: 53.8 ng·h/mL
- Cmax [1, 6]: 3.58 ng/mL
- half-life [1, 6]: 8.2 h
- AUC(0-t) [1, 6]: 24.3 ng·h/mL
- clearance [1, 6]: 3370 mL/min
- concentration at 24 h [1, 6]: 0.42 ng/mL
- Tmax [1, 7]: 4.33 h
- AUC(0-inf) [1, 8]: 253 ng·h/mL
- Cmax [1, 8]: 8.5 ng/mL
- half-life [1, 8]: 16.8 h
- AUC(0-t) [1, 8]: 116 ng·h/mL
- clearance [1, 8]: 2300 mL/min
- concentration at 24 h [1, 8]: 2.8 ng/mL
- Tmax ([1]; human, plasma, oral, both groups (DL 2 and DL 4), with neratinib, read-out: mean Tmax): > 4 h
- TRAE all grades: Anemia [2, 9]: 1 (25)
- TRAE all grades: Anorexia [2, 9]: 1 (25)
- TRAE all grades: Constipation [2, 9]: 1 (25)
- TRAE all grades: Mucositis [2, 9]: 2 (50)
- TRAE all grades: Nausea [2, 9]: 1 (25)
- TRAE all grades: Pruritus [2, 9]: 1 (25)
- TRAE all grades: Rash [2, 9]: 2 (50)
- Grade ≥ 3 treatment-related: Anorexia [2, 10]: 2 (6.1)
- Grade ≥ 3 treatment-related: Dyspnea [2, 10]: 1 (3)
- Grade ≥ 3 treatment-related: Epistaxis [2, 10]: 1 (3)
- Grade ≥ 3 treatment-related: GI hemorrhage [2, 10]: 1 (3)
- Grade ≥ 3 treatment-related: Hyperglycemia [2, 10]: 2 (6.1)
- Grade ≥ 3 treatment-related: Hypertriglyceridemia [2, 10]: 1 (3)
- Grade ≥ 3 treatment-related: Mucositis [2, 10]: 2 (6.1)
- Grade ≥ 3 treatment-related: Nausea [2, 10]: 1 (3)
- Grade ≥ 3 treatment-related: Pneumonia [2, 10]: 1 (3)
- Grade ≥ 3 treatment-related: Rash [2, 10]: 1 (3)
- Grade ≥ 3 treatment-related: Thrombocytopenia [2, 10]: 2 (6.1)
- TRAE all grades: Anorexia [2, 10]: 11 (33.3)
- TRAE all grades: Constipation [2, 10]: 7 (21.2)
- TRAE all grades: Diarrhea [2, 10]: 7 (21.2)
- TRAE all grades: Fatigue [2, 10]: 12 (36.4)
- TRAE all grades: Headache [2, 10]: 7 (21.2)
- TRAE all grades: Mucositis [2, 10]: 17 (51.5)
- TRAE all grades: Nausea [2, 10]: 14 (42.4)
- TRAE all grades: Rash [2, 10]: 20 (60.6)
- TRAE all grades: Vomiting [2, 10]: 5 (15.2)
- TRAE all grades: Mucositis [2, 11]: 51.5
- TRAE all grades: Nausea [2, 11]: 42.4
- TRAE all grades: Rash [2, 11]: 60.6
- Tmax ([2]; single agent): 1 to 2 h
- dose with acceptable tolerability suggested by PK analysis (MTD undetermined) ([2]; single agent): 10 mg/day

Compound: CCOc1cc2ncc(C#N)c(Nc3ccc(OCc4ccccn4)c(Cl)c3)c2cc1NC(=O)/C=C/CN(C)C [Neratinib, neratinib]
- AR (accumulation ratio) [1, 4]: 1.41(1.2-1.9)
- AUC0-∞ [1, 4]: 910 (195-2125) ng*h/mL
- Ctau or C24 [1, 4]: 13.6 (2.6-31.8) ng/mL
- AR (accumulation ratio) [1, 5]: 2.29 (1.4-3.8)
- Ctau or C24 [1, 5]: 44 (14.5-125) ng/mL
- Cmax [1, 6]: 35.8 ng/mL
- half-life [1, 6]: 13.1 h
- AUC(0-t) [1, 6]: 400 ng·h/mL
- clearance [1, 6]: 9970 mL/min
- concentration at 24 h [1, 6]: 13.6 ng/mL
- Tmax [1, 7]: 4.8 h
- AUC(0-inf) [1, 8]: 3930 ng·h/mL
- Cmax [1, 8]: 83.4 ng/mL
- half-life [1, 8]: 28.6 h
- AUC(0-t) [1, 8]: 1170 ng·h/mL
- clearance [1, 8]: 4820 mL/min
- concentration at 24 h [1, 8]: 44 ng/mL
- Tmax ([1]; human, plasma, oral, Dose Level 4: neratinib 240mg/day + everolimus 7.5mg/day, n=5, Cycle 1, Day 15, mean (range), read-out: Tmax): 4.2 h
- TRAE all grades: Anorexia [3, 12]: 2 (67)
- TRAE all grades: Diarrhea [3, 12]: 3 (100)
- TRAE all grades: Fatigue [3, 12]: 2 (67)
- TRAE all grades: Nausea [3, 12]: 2 (67)
- TRAE all grades: Rash [3, 12]: 1 (33)
- TRAE all grades: Vomiting [3, 12]: 1 (33)
- TRAE all grades: Anorexia [3, 13]: 67
- TRAE all grades: Diarrhea [3, 13]: 100
- TRAE all grades: Fatigue [3, 13]: 67
- TRAE all grades: Nausea [3, 13]: 67
- MTD ([3]; monotherapy): 320 mg
